Data reported in patent US20180228795A1, “COMBINATION THERAPY FOR CANCER” (Eli Lilly and Company, priority 2015, published 2018).

Legend:
Assay in all cases: Antitumor effects in PDX mouse model of TNBC
Type in all cases: in vivo
[1] = tested on: PDX TNBC Model ST035; settings: A 10 mg/kg SC BID 3 days on/4 off ×4, B 7.5 mg/kg PO BID×28, versus vehicle
Text: (§1) Establish PDX tumor models from viable human tumor tissue and serially passage in immunocompromised female mice a limited number of times. Using tumor fragments harvested from donor host animals, perform unilateral subcutaneous implants from a specific passage of the PDX tumor model on the flanks of the experimental animals. When tumor volumes reach approximately 150-250 mm^3 in size, randomize the animals by treatment arm by randomization techniques well known in the art and place into their respective treatment groups using 1 animal per treatment group (3 animals in an untreated group). Formulate CHK1 inhibitor, 5-(5-(2-(3-aminopropoxy)-6-methoxyphenyl)-1H-pyrazol-3-ylamino)pyrazine-2-carbonitrile methanesulfonate hydrate, (Compound A) every 14 days in 20% captisol (dissolved in water) and administer subcutaneously twice daily at a dose of 10 mg/kg on days 1/2/3 of a weekly cycle for 4 weeks (SC, BID [3 days on/4 off]×4). Formulate the PI3K/mTOR dual inhibitor, 8-[5-(1-hydroxy-1-methylethyl)pyridin-3-yl]-1-[(2S)-2-methoxypropyl]-3-methyl-1,3-dihydro-2H-imidazo[4,5-c]quinolin-2-one, (Compound B) weekly in 1% (HEC)/0.25% Tween 80 (Polysorbate 80)/0.05% Dow-Corning Antifoam 1510-US and administer by oral gavage twice-daily for 28 days (PO, BID×28) at a dose of 7.5 mg/kg. Dose combination treatment animals with both compounds according to the schedule described above for monotherapy, and dose vehicle treatment animals with vehicle according to the schedule for Compound B.
(§2) Test the combination of Compound A and Compound B, as well as their respective monotherapies, in 40 PDX models (Table 1) of TNBC. Assess antitumor efficacy of the treatment groups by measuring tumor volume via caliper measurements twice a week during the course of the study. Measure body weight twice weekly during the course of the study as a general indicator of tolerability.
(§3) Capture tumor size and body weight twice per week. Estimate tumor volume (V) by using the formula: V=(π/6)×L×W^2 where L=larger of measured diameter and W=smaller perpendicular diameter. Calculate relative tumor volume using the tumor volume measurement taken nearest to the last day of dosing for each animal (T), divided by the baseline tumor volume for that animal (T0), which is the volume recorded on or just prior to the first day of dosing, Y=T/T0. Calculate % ΔT/ΔC values using the formula % ΔT/ΔC=100(YT−1)/(YC−1), whereby YT or YC=geometric mean relative volume of the compound treated group or the control group, respectively. Tumor growth inhibition is observed in those instances where the calculated values for % ΔT/ΔC are less than 100% whereby greater inhibition results in smaller % ΔT/ΔC values. If ΔT<0, then a tumor regression value is calculated instead of % ΔT/ΔC whereby % Regression=100(YT−1). Note that negative values indicate regression. We collectively refer to % ΔT/ΔC and % Regression as % Response.
(§4) Examine relative tumor volume (final volume divided by baseline volume) on the last day of treatment or the last day on which data from all three treatment groups and vehicle is available, if it is earlier than the last day of treatment and at least 14 days after baseline. Expected additive relative volume is determined using the Bliss method (Bliss, C. I., Ann Appl Biol, 1939; 26(3):585-615). Specifically, denoting Y=relative volume, YExp=(Y1*Y2)/YV, where YExp=expected additive relative volume, Y1 and Y2 are the relative volumes in the single agent groups (Compound A and Compound B), and YV is the relative volume in the vehicle group. A range of additivity is defined around the expected additive relative volume via upper and lower limits as follows:
(§5) Yupper=max(2*YExp,YExp+0.2)
(§6) Ylower=min(YExp/2,YExp−0.2)
(§7) The upper limit of the range is the larger of 2-fold above or 20% above the expected additive relative volume, and the lower limit is the smaller of 2-fold below or 20% below the expected additive relative volume. […]

[2] = tested on: PDX TNBC Model CTG-1350; settings: PDX model CTG-1350; A 10 mg/kg SC BID 3 days on/4 off ×4; B 7.5 mg/kg PO BID×28; versus vehicle
Text: as §1, §2, §3, §4, §5, §6, §7

[3] = tested on: PDX TNBC Model MAXF 574; settings: PDX model MAXF 574; A 10 mg/kg SC BID 3 days on/4 off ×4; B 7.5 mg/kg PO BID×28; versus vehicle
Text: as §1, §2, §3, §4, §5, §6, §7

[4] = tested on: PDX TNBC Model CTG-0670; settings: PDX model CTG-0670; A 10 mg/kg SC BID 3 days on/4 off ×4; B 7.5 mg/kg PO BID×28; versus vehicle
Text: as §1, §2, §3, §4, §5, §6, §7

[5] = tested on: PDX TNBC Model ST848; settings: A 10 mg/kg SC BID 3 days on/4 off ×4, B 7.5 mg/kg PO BID×28, versus vehicle
Text: as §1, §2, §3, §4, §5, §6, §7

[6] = tested on: PDX TNBC Model CTG-0986; settings: PDX model CTG-0986; A 10 mg/kg SC BID 3 days on/4 off ×4; B 7.5 mg/kg PO BID×28; versus vehicle
Text: as §1, §2, §3, §4, §5, §6, §7

[7] = tested on: PDX TNBC Model CTG-1340; settings: PDX model CTG-1340; A 10 mg/kg SC BID 3 days on/4 off ×4; B 7.5 mg/kg PO BID×28; versus vehicle
Text: as §1, §2, §3, §4, §5, §6, §7

[8] = tested on: PDX TNBC Model CTG-1019; settings: PDX model CTG-1019; A 10 mg/kg SC BID 3 days on/4 off ×4; B 7.5 mg/kg PO BID×28; versus vehicle
Text: as §1, §2, §3, §4, §5, §6, §7

[9] = tested on: PDX TNBC Model ST231; settings: A 10 mg/kg SC BID 3 days on/4 off ×4, B 7.5 mg/kg PO BID×28, versus vehicle
Text: as §1, §2, §3, §4, §5, §6, §7

[10] = tested on: PDX TNBC Model CTG-0888; settings: PDX model CTG-0888; A 10 mg/kg SC BID 3 days on/4 off ×4; B 7.5 mg/kg PO BID×28; versus vehicle
Text: as §1, §2, §3, §4, §5, §6, §7

[11] = tested on: PDX TNBC Model MAXF 583; settings: PDX model MAXF 583; A 10 mg/kg SC BID 3 days on/4 off ×4; B 7.5 mg/kg PO BID×28; versus vehicle
Text: as §1, §2, §3, §4, §5, §6, §7

[12] = tested on: PDX TNBC Model CTG-0437; settings: PDX model CTG-0437; A 10 mg/kg SC BID 3 days on/4 off ×4; B 7.5 mg/kg PO BID×28; versus vehicle
Text: as §1, §2, §3, §4, §5, §6, §7

Compound | % Rsp. (% ΔT/ΔC or % Regression) [1] | % Rsp. (% ΔT/ΔC or % Regression) [2] | % Rsp. (% ΔT/ΔC or % Regression) [3] | % Rsp. (% ΔT/ΔC or % Regression) [4] | % Rsp. (% ΔT/ΔC or % Regression) [5] | % Rsp. (% ΔT/ΔC or % Regression) [6] | % Rsp. (% ΔT/ΔC or % Regression) [7] | % Rsp. (% ΔT/ΔC or % Regression) [8] | % Rsp. (% ΔT/ΔC or % Regression) [9] | % Rsp. (% ΔT/ΔC or % Regression) [10] | % Rsp. (% ΔT/ΔC or % Regression) [11] | % Rsp. (% ΔT/ΔC or % Regression) [12]
CO[C@@H](C)Cn1c(=O)n(C)c2cnc3ccc(-c4cncc(C(C)(C)O)c4)cc3c21 [Compound B, 8-[5-(1-hydroxy-1-methylethyl)pyridin-3-yl]-1-[(2S)-2-methoxypropyl]-3-methyl-1,3-dihydro-2H-imidazo[4,5-c]quinolin-2-one] | 54.0% | 7.7% | 59.4% | 117.6% | 24.6% | 54.6% | 17.1% | 158.0% | 76.8% | 21.2% | 121.1% | 80.3%
COc1cccc(OCCCN)c1-c1cc(Nc2cnc(C#N)cn2)n[nH]1.CS(=O)(=O)O [Compound A, 5-(5-(2-(3-aminopropoxy)-6-methoxyphenyl)-1H-pyrazol-3-ylamino)pyrazine-2-carbonitrile methanesulfonate hydrate] | 2.1% | 20.3% | 22.9% | 112.8% | −50.0% | 32.2% | 41.0% | 86.6% | −74.6% | 15.0% | 9.6% | −87.5%
